Columns and labels:
[1] = system: HeLa galactose cells; test: Cell growth and proliferation assay of HeLa galactose cells (crystal violet); format: cell-based; conditions: Homo sapiens, HeLa, 72 h, 72 hours incubation, crystal violet staining, absorbance at 590 nm
Procedure: The cervical tumor cell line HeLa (ATCC, CCL-2) was cultivated in DMEM medium (Invitrogen cat. no. 11971, 4.5 g/L high glucose) containing 10% fetal calf serum (Sigma cat. no. F9665) and 1% Penicillin/Streptomycin (Sigma cat. no. P0781) at 37° C. in 5% CO2. HeLa galactose cells (i.e. HeLa cells that grow in high concentrations of galactose) were generated from HeLa glucose cells (i.e. HeLa cells that grow in high concentrations of glucose) by gradually changing the amount of glucose in the media to zero glucose in the presence of galactose as a sugar source (50% galactose/50% glucose media for one week, then 75% galactose/25% glucose media for one week, to 100% galactose media in the third week). Galactose media (Invitrogen cat. no. 11966) was supplemented with 10 mM galactose (Sigma cat. no. G5388).
Cell Growth and Proliferation Assay of HeLa Galactose and Glucose Cells
HeLa galactose cells and HeLa glucose cells were seeded in 96 well plates (TPP, cat. no 92696) at 2000 and 1500 cells/well, respectively, in 100 μL of complete medium. After overnight incubation the cells were incubated for 72 hours in complete medium containing 0.001% DMSO or compounds (final concentration of DMSO 0.001%). After the medium was removed, cells were fixed and stained by adding 50 μL crystal violet staining (0.2% crystal violet (Sigma-Aldrich cat. no. C0775) in 50% methanol) per well. The plates were incubated for 1 hour at room temperature. Subsequently the stain was decanted and plates were washed 4 times with de-mineralized water. Plates were air-dried for 2 hours. The stain was dissolved by adding 100 μL buffer (0.1 M Tris pH 7.5, 0.2% SDS, 20% ethanol) per well and shaking the plates. Absorbance at 590 nm was measured using a SpectraMax® 250 plate reader (Molecular Devices). Antiproliferative/growth inhibition IC50s were calculated from concentration-response curves using GraphPad Prism software.

[2] = system: Oxygen consumption (mitochondrial function); test: Oxygen consumption assay (MitoXpress probe); format: cell-based; conditions: 5 h, MitoXpress probe signal, kinetic analysis at 37° C. for 5 hours, compared to untreated cells
Text: Oxygen consumption is one of the most informative and direct measures of mitochondrial function and can be measured, for example, by using the MitoXpress® assay (Luxcel MX-2001, Luxcel Biosciences). The MitoXpress® probe is one of a family of phosphorescent oxygen sensitive probes. The assay exploits the ability of oxygen to quench the excited state of the MitoXpress® probe. As the test material respires (i.e. the cells), oxygen is depleted in the surrounding solution/environment, which increases the probe phosphorescence signal. Changes in oxygen consumption reflecting changes in mitochondrial activity are seen as changes in the MitoXpress® probe signal over time.
Cells were seeded in 96 well black plates with transparent bottoms (Greiner Bio-One cat. no. 655090) at a density of 50′000 cells/well in a final volume of 100 μL. After 24 hours the incubation media was removed and 150 μL of fresh media containing inhibitors at different concentrations was added to each well. Then, 10 μL of MitoXpress® and 150 μL mineral oil were added per well. Reading from the top of the plate, kinetic analysis was performed at 37° C. for 5 hours using a Synergy 4 plate reader (BioTek) and Time-resolved Fluoresence (TRF) wavelengths of 380/11 nm excitation and 650/20 nm emission or 665/40 emission (30 microsecond delay time, 100 microsecond integration time, gain or sensitivity settings set at either medium or high). IC50s were calculated as the concentration that inhibits 50% of the phosphorescent oxygen sensitive probe signal (MitoXpress®) as compared to untreated cells.

SMILES	IC50 [1]	IC50 [2]
Cc1nsc(NC(=O)N2CCC(=Cc3ccc(N4CCCC4)cc3F)CC2)n1 [Example 45, 4-[(2-fluoro-4-pyrrolidin-1-yl-phenyl)methylene]-N-(3-methyl-1,2,4-thiadiazol-5-yl)piperidine-1-carboxamide]	284 nM	440 nM
O=C(Nc1ncns1)N1CCC(Cc2ccc(Cl)cc2F)CC1 [Example 48]	146 nM	278 nM
Cc1nsc(NC(=O)N2CCN(Cc3ccc(Cl)cc3F)CC2)n1 [Example 50, 4-[(4-chloro-2-fluoro-phenyl)methyl]-N-(3-methyl-1,2,4-thiadiazol-5-yl)piperazine-1-carboxamide]	197 nM	255 nM
Cc1nsc(NC(=O)N2CCCN(Cc3ccc(Cl)cc3F)CC2)n1 [Example 51]	67 nM	182 nM
Cc1nsc(NC(=O)N2CCC(=Cc3ccc(OC(F)(F)F)cc3)CC2)n1 [Example 52]	271 nM	477 nM
Cc1nsc(NC(=O)N2CCC(Cc3ccc(OC(F)(F)F)cc3)CC2)n1 [Example 53]	329 nM	890 nM
Cc1nsc(NC(=O)N2CCC(=Cc3ccc(OC(F)(F)F)cc3F)CC2)n1 [Example 54]	186 nM	235 nM
Cc1nsc(NC(=O)N2CCC(Cc3ccc(OC(F)(F)F)cc3F)CC2)n1 [Example 55]	202 nM	383 nM
Cc1nsc(NC(=O)N2CCC(Oc3ccc(OC(F)(F)F)cc3)CC2)n1 [Example 56]	736 nM	1250 nM
Cc1nsc(NC(=O)N2CCC(Cc3ncc(Cl)cc3F)CC2)n1 [Example 62]	57 nM	122 nM
Cc1nsc(NC(=O)N2CCC(Cc3cc(C)c(Cl)cc3F)CC2)n1 [Example 64]	89 nM	187 nM
Cc1nsc(NC(=O)N2CCC(Cc3c(F)cc(Cl)cc3Cl)CC2)n1 [Example 66]	67 nM	119 nM
Cc1nsc(NC(=O)N2CCC(=Cc3ncc(Cl)cc3F)CC2)n1 [Example 67]	125 nM	233 nM
COc1cc(F)c(CC2CCN(C(=O)Nc3nc(C)ns3)CC2)cn1 [Example 68]	100 nM	179 nM
COc1cc(F)c(C=C2CCN(C(=O)Nc3nc(C)ns3)CC2)cn1 [Example 69]	91 nM	119 nM
Cc1nccc(NC(=O)N2CCC(Cc3ccc(Cl)cc3F)CC2)n1 [Example 71]	227 nM	338 nM
Cc1nsc(NC(=O)N2CCC(C(=O)c3ccc(F)cc3F)CC2)n1 [Example 75, 4-(2,4-difluorobenzoyl)-N-(3-methyl-1,2,4-thiadiazol-5-yl)piperidine-1-carboxamide]	54 nM	59 nM
COc1ccc(C(=O)C2CCN(C(=O)Nc3nc(C)ns3)CC2)cc1 [Example 76]	190 nM	332 nM
O=C(Nc1nc(CCO)ns1)N1CCC(=Cc2ccc(Cl)cc2F)CC1 [Example 78, 4-[(4-chloro-2-fluoro-phenyl)methylene]-N-[3-(2-hydroxyethyl)-1,2,4-thiadiazol-5-yl]piperidine-1-carboxamide]	163 nM	267 nM
O=C(Nc1nc(CCN2CCOCC2)ns1)N1CCC(=Cc2ccc(Cl)cc2F)CC1 [Example 79, 4-[(4-chloro-2-fluoro-phenyl)methylene]-N-[3-(2-morpholinoethyl)-1,2,4-thiadiazol-5-yl]piperidine-1-carboxamide]	279 nM	378 nM
N#CCCc1nsc(NC(=O)N2CCC(=Cc3ccc(Cl)cc3F)CC2)n1 [Example 80, 4-[(4-chloro-2-fluoro-phenyl)methylene]-N-[3-(2-cyanoethyl)-1,2,4-thiadiazol-5-yl]piperidine-1-carboxamide]	134 nM	108 nM
Cc1nsc(NC(=O)N2CC/C(=C/c3ccc(Cl)cc3F)C(C)C2)n1 (stereo not shown) [Example 83, (4Z)-4-[(4-chloro-2-fluoro-phenyl)methylene]-3-methyl-N-(3-methyl-1,2,4-thiadiazol-5-yl)piperidine-1-carboxamide]	115 nM	329 nM

Second part, led by results:

IC50 [1]	SMILES	IC50 [2]
47 nM	Cc1nsc(NC(=O)N2CCC(Cc3ccc(N(C)C)cc3F)CC2)n1 [Example 46]	129 nM
25 nM	Cc1nsc(NC(=O)N2CCC(=Cc3ccc(N(C)C)cc3F)CC2)n1 [Example 47, 4-[[4-(dimethylamino)-2-fluoro-phenyl]methylene]-N-(3-methyl-1,2,4-thiadiazol-5-yl)piperidine-1-carboxamide]	67 nM
21 nM	Cc1nsc(NC(=O)N2CCCC(Cc3ccc(Cl)cc3F)CC2)n1 (stereo not shown) [Example 49, 4-[(4-chloro-2-fluoro-phenyl)methyl]-N-(3-methyl-1,2,4-thiadiazol-5-yl)azepane-1-carboxamide]	58 nM
41 nM	Cc1nsc(NC(=O)N2CCC(=Cc3ccc(F)cc3F)CC2)n1 [Example 59, 4-[(2,4-difluorophenyl)methylene]-N-(3-methyl-1,2,4-thiadiazol-5-yl)piperidine-1-carboxamide]	43 nM
53 nM	Cc1nsc(NC(=O)N2CCC(Cc3ccc(F)cc3F)CC2)n1 [Example 60, 4-[(2,4-difluorophenyl)methyl]-N-(3-methyl-1,2,4-thiadiazol-5-yl)piperidine-1-carboxamide]	68 nM
20 nM	Cc1cc(NC(=O)N2CCC(Cc3ccc(Cl)cc3F)CC2)sn1 [Example 63, 4-[(4-chloro-2-fluoro-phenyl)methyl]-N-(3-methylisothiazol-5-yl)piperidine-1-carboxamide]	56 nM
50 nM	COc1cc(CC2CCN(C(=O)Nc3nc(C)ns3)CC2)c(F)cc1Cl [Example 65]	126 nM
30 nM	CCc1nsc(NC(=O)N2CCC(Cc3ccc(Cl)cc3F)CC2)n1 [Example 70, 4-[(4-chloro-2-fluoro-phenyl)methyl]-N-(3-ethyl-1,2,4-thiadiazol-5-yl)piperidine-1-carboxamide]	65 nM
34 nM	Cc1cc(NC(=O)N2CCC(Cc3ccc(Cl)cc3F)CC2)ccn1 [Example 72, 4-[(4-chloro-2-fluoro-phenyl)methyl]-N-(2-methyl-4-pyridyl)piperidine-1-carboxamide]	68 nM
34 nM	Cc1nsc(NC(=O)N2CCC(C(=O)c3ccc(Cl)cc3)CC2)n1 [Example 74, 4-(4-chlorobenzoyl)-N-(3-methyl-1,2,4-thiadiazol-5-yl)piperidine-1-carboxamide]	51 nM
48 nM	Cc1nsc(NC(=O)N2CCC(C(=O)c3ccc(Br)cc3)CC2)n1 [Example 77, 4-(4-bromobenzoyl)-N-(3-methyl-1,2,4-thiadiazol-5-yl)piperidine-1-carboxamide]	54 nM
31 nM	Cc1nsc(NC(=O)N2CC/C(=C\c3ccc(Cl)cc3F)C(C)C2)n1 (stereo not shown) [Example 82, (4E)-4-[(4-chloro-2-fluoro-phenyl)methylene]-3-methyl-N-(3-methyl-1,2,4-thiadiazol-5-yl)piperidine-1-carboxamide]	78 nM
38 nM	Cc1nsc(NC(=O)N2CC/C(=C\c3ccc(Cl)cc3F)C(C)(C)C2)n1 [Example 85, (4E)-4-[(4-chloro-2-fluoro-phenyl)methylene]-3,3-dimethyl-N-(3-methyl-1,2,4-thiadiazol-5-yl)piperidine-1-carboxamide]	83 nM
